The term IC50 denotes the concentration that inhibits the measured activity by half.

IC50 and SI data for twelve molecules are collected here from PMC9176691, “Design, synthesis and biological evaluation of novel diosgenin–benzoic acid mustard hybrids with potential anti-proliferative activities in human hepatoma HepG2 cells” (Journal of Enzyme Inhibition and Medicinal Chemistry, 2022).

For experiment [1], the system named is HeLa cells. Description: MTT anti-proliferative assay, HeLa. Format: cell-based. The following applies: Homo sapiens, read-out: IC50 HeLa.
The subject of experiment [2] is MCF-7 cells. Description: MTT anti-proliferative assay, MCF-7. The class given is cell-based, human. The conditions noted are these: Homo sapiens, read-out: IC50 MCF-7. For orientation: Formazan colour is commonly taken as a measure of viable cells.
Experiment [3] has as its system GES-1 cells. In words: MTT cytotoxicity assay, normal GES-1. Format: cell-based, human. The following applies: for IC50: Homo sapiens, read-out: IC50 GES-1.
Experiment [4] concerns HepG2 cells. Description: MTT anti-proliferative assay, HepG2. The class given is cell-based, human. The following applies: read-out: IC50 HepG2.
[5] abbreviates: MTT, 48 h treatment, average ± SD of three independent experiments.

Read-outs that look alike come from different tables or passages of the source.

`CC(=O)OC1CCC2(C)C(=CCC3C2CCC2(C)C3CC3OC(CCC(C)C(=O)N4CCN(C(=O)c5ccc(N(CCCl)CCCl)cc5)CC4)C(C)C32)C1` [Compound 14e, (22 R,25R)-(1-piperazinyl-4-(bis(2-chloroethyl)amino)benzamido)-3β-acetoxy-5-en-furostan-26-amide]: the IC50 in experiment [1] (48 h) was above 50 µM; in experiment [2] (MCF7, 48 h) it was 42.7 ± 2.25 µM; in experiment [3] (GES1, 48 h) it was 58.8 ± 1.34 µM; in experiment [4] (Homo sapiens, HepG2, 48 h), 19.3 ± 1.29 µM. In addition, in experiment [3], the SI is reported as 3.05.

As for `CC(=O)OC1CCC2(C)C(=CCC3C2CCC2(C)C3CC3OC(CCC(C)C(=O)NCCNC(=O)c4ccc(N(CCCl)CCCl)cc4)C(C)C32)C1` [Compound 14a, (22 R,25R)-(2-aminoethyl-4-(bis(2-chloroethyl)amino)benzamido)-3β-acetoxy-5-en-furostan-26-amide], the concentration for half-maximal inhibition (IC50) in experiment [1] (48 h) is 17.2 ± 2.81 µM; in experiment [2] (MCF7, 48 h), 48.3 ± 2.21 µM; in experiment [3] (GES1, 48 h), above 100 µM; in experiment [4] (Homo sapiens, HepG2, 48 h), 10.2 ± 1.01 µM.

With `CC(CCC1OC2CC3C4CC=C5CC(O)CCC5(C)C4CCC3(C)C2C1C)C(=O)NCCNC(=O)c1ccc(N(CCCl)CCCl)cc1` [Compound 15a, (22 R,25R)-(2-aminoethyl-4-(bis(2-chloroethyl)amino)benzamido)-3β-hydroxy-5-en-furostan-26-amide], the IC50 was above 50 µM in experiment [1] (48 h); above 100 µM in experiment [2] (MCF7, 48 h); 83.2 ± 3.12 µM in experiment [3] (GES1, 48 h); 13.2 ± 1.01 µM in experiment [4] (Homo sapiens, HepG2, 48 h). In experiment [3], this molecule yielded an SI of 6.28.

`C[C@H](CC[C@H]1OC2C[C@H]3[C@@H]4CC=C5C[C@@H](OC(=O)c6ccc(N(CCCl)CCCl)cc6)CC[C@]5(C)C4CC[C@]3(C)C2[C@@H]1C)COC(=O)c1ccc(N(CCCl)CCCl)cc1` (stereo partly drawn) [Compound 9, (22 R,25R)-3β-((4-(bis(2-chloroethyl)amino)benzoyl)oxy)-5-en-furostan-26–4-(bis(2-chloroethyl)amino) benzoate]: the IC50 in experiment [1] (48 h) was above 50 µM; in experiment [2] (MCF7, 48 h) it was above 50 µM; in experiment [3] (GES1, 48 h) it was above 100 µM; in experiment [4] (Homo sapiens, HepG2, 48 h) it was above 50 µM.

Consider `CC(=O)O[C@H]1CC[C@@]2(C)C(=CC[C@@H]3C2CC[C@]2(C)C4C(C[C@@H]32)O[C@H](CC[C@@H](C)COC(=O)c2ccc(N(CCCl)CCCl)cc2)[C@H]4C)C1` (stereo partly drawn) [Compound 10, (22 R,25R)-3β-acetoxy-5-en-furostan-26–4-(bis(2-chloroethyl)amino)benzoate], for which the IC50 was above 50 µM in experiment [1] (48 h); 28.1 ± 1.52 µM in experiment [2] (MCF7, 48 h); above 100 µM in experiment [3] (GES1, 48 h); above 50 µM in experiment [4] (Homo sapiens, HepG2, 48 h).

Regarding `CC(CCC1OC2CC3C4CC=C5CC(O)CCC5(C)C4CCC3(C)C2C1C)C(=O)N1CCN(C(=O)c2ccc(N(CCCl)CCCl)cc2)CC1` [Compound 15e, (22 R,25R)-(1-piperazinyl-4-(bis(2-chloroethyl)amino)benzamido)-3β-hydroxy-5-en-furostan-26-amide], the IC50 in experiment [1] (48 h) was 28.5 ± 2.13 µM; in experiment [2] (MCF7, 48 h), above 50 µM; in experiment [3] (GES1, 48 h) it was above 100 µM; in experiment [4] (Homo sapiens, HepG2, 48 h), 14 ± 1.12 µM.

As to `C[C@H](CC[C@H]1OC2C[C@H]3[C@@H]4CC=C5C[C@@H](O)CC[C@]5(C)C4CC[C@]3(C)C2[C@@H]1C)COC(=O)c1ccc(N(CCCl)CCCl)cc1` (stereo partly drawn) [Compound 8, (22 R,25R)-3β-hydroxy-5-en-furostan-26–4-(bis(2-chloroethyl)amino)benzoate], the IC50 in experiment [1] (48 h) was above 50 µM; in experiment [2] (MCF7, 48 h), above 50 µM; in experiment [3] (GES1, 48 h) it was above 100 µM; in experiment [4] (Homo sapiens, HepG2, 48 h), above 50 µM.

As for `CC(=O)OC1CCC2(C)C(=CCC3C2CCC2(C)C3CC3OC(CCC(C)C(=O)NCCCNC(=O)c4ccc(N(CCCl)CCCl)cc4)C(C)C32)C1` [Compound 14b, (22 R,25R)-(3-aminopropyl-4-(bis(2-chloroethyl)amino)benzamido)-3β-acetoxy-5-en-furostan-26-amide], the IC50 in experiment [1] (48 h) is above 100 µM; in experiment [2] (MCF7, 48 h), 30.3 ± 2.08 µM; in experiment [3] (GES1, 48 h), 47 ± 2.34 µM; in experiment [4] (Homo sapiens, HepG2, 48 h), 25.3 ± 1.4 µM. The molecule also had an SI in experiment [3] of 1.86.

For the molecule `C[C@@H]1CC[C@@]2(OC1)O[C@H]1C[C@H]3[C@@H]4CC=C5C[C@@H](O)CC[C@]5(C)[C@H]4CC[C@]3(C)[C@H]1[C@@H]2C` [Diosgenin], the IC50 in experiment [1] (setting [5]) is 55.1 ± 2.11 µM; in experiment [2] (MCF7, MTT, 48 h treatment, average ± SD of three independent experiments) it was 23.9 ± 1.34 µM; in experiment [3] (GES1, MTT, 48 h treatment, normal gastric epithelial cells, average ± SD of three independent experiments), above 100 µM; in experiment [4] (Homo sapiens, HepG2, 48 h, MTT, 48 h treatment, average ± SD of three independent experiments), 32.6 µM; in experiment [4] (setting [5]), 33.9 ± 1.37 µM. In addition, in experiment [3] (SI = IC50 for GES-1 cell line/IC50 for HepG2 cell line), the SI is above 2.95.

Consider `CC(CCC1OC2CC3C4CC=C5CC(O)CCC5(C)C4CCC3(C)C2C1C)C(=O)N1CCCN(C(=O)c2ccc(N(CCCl)CCCl)cc2)CC1` [Compound 15f, (22 R,25R)-(4–(1-homopiperazinyl)-4-(bis(2-chloroethyl)amino)benzamido)-3β-hydroxy-5-en-furostan-26-amide], for which the IC50 in experiment [1] (48 h) is above 50 µM; in experiment [2] (MCF7, 48 h), above 100 µM; in experiment [3] (GES1, 48 h) it was above 100 µM; in experiment [4] (Homo sapiens, HepG2, 48 h), 18.9 ± 0.93 µM. This molecule had an SI in experiment [3] above 5.28.

In the case of `CO[C@@]12[C@H](COC(N)=O)C3=C(C(=O)C(C)=C(N)C3=O)N1C[C@@H]1N[C@@H]12` [Mitomycin C, reference compound], the IC50 in experiment [1] (48 h) is 22 ± 1.12 µM; in experiment [2] (MCF7, 48 h), 16.7 ± 1.02 µM; in experiment [3] (GES1, 48 h), 23.4 ± 1.11 µM; in experiment [4] (Homo sapiens, HepG2, 48 h), 32.6 ± 1.22 µM. Further, in experiment [3], the SI is reported as 0.72.

In the case of `CC(CCC1OC2CC3C4CC=C5CC(O)CCC5(C)C4CCC3(C)C2C1C)C(=O)NCCCNC(=O)c1ccc(N(CCCl)CCCl)cc1` [Compound 15b, (22 R,25R)-(3-aminopropyl-4-(bis(2-chloroethyl)amino)benzamido)-3β-hydroxy-5-en-furostan-26-amide], the IC50 in experiment [1] (48 h) was 49.8 ± 2.13 µM; in experiment [2] (MCF7, 48 h) it was 37.2 ± 2.23 µM; in experiment [3] (GES1, 48 h), above 100 µM; in experiment [4] (Homo sapiens, HepG2, 48 h), 14 ± 1.15 µM. In experiment [3], the SI is above 7.14.
